We go through one molecule from patent US20200268720A1, “METHODS OF USE OF A CLASS IIA HDAC INHIBITOR” (GlaxoSmithKline LLC, priority 2016, published 2020).

Series [1] deals with MMTV-PyMT tumors.
Protocol: For all transgenic mouse experiments virgin female FVB/N transgenic mice carrying the polyoma middle T (PyMT) transgene under the control of the mammary tumor virus (MMTV) promoter were used. All mice were maintained within the Dana-Farber Cancer Center (DCFI) animal facility and all experiments involving animals were conducted in accordance with the GSK Policy on the Care, Welfare and Treatment of Laboratory Animals and were reviewed and approved by the DFCI Institutional Animal Care and Use Committee approved. MMTV-PyMT transgenic mice were obtained from The Jackson Laboratory (002374). Mice that were approximately 80 days old were enrolled into the study when their tumor burden was between 300-600 mm^3, unless otherwise noted. Although female mice have 10 mammary fat pads, tumors from mammary fat pad positions 5 and 10 were excluded from all experiments and analysis. Caliper measurements were used to calculate the tumor volume from each mammary tumor using [(Length×Width^2)/2]. The sum of the volume from each tumor on a mouse was combined to generate “total tumor burden”. At the indicated time points animals were euthanized in a CO2 chamber before performing a cardiac perfusion with normal saline. Lungs and tumors were then removed for analysis.
Tumors were extracted and fixed in 10% formalin overnight. Tumors were embedded in paraffin and sectioned at the Rodent Pathology Core at Harvard Medical School. Preceding immunohistochemical staining, tumor sections were exposed to two washes with Histo-Clear II (National Diagnostics, cat. #HS-202), two washes with 100% ethanol, and subsequent hydration with washes of 90%, 80%, 70%, and 50% ethanol. Antigen unmasking was achieved by heating sections in 10 mM sodium citrate buffer (pH 6.0). After cooling, sections were washed in dH20, incubated in 3% Hydrogen peroxide for 10 minutes at room temperature, washed in dH20 again, and then washed in 1×PBS. Antigen blocking was carried out by incubating sections in PBS buffer containing 0.5% Tween, 1% BSA plus 5% serum for 1 hour at room temperature. Sections were then stained in block buffer containing primary antibody (anti-mouse F4/80, clone BM8, BioLegend cat. #123101, 1:50; anti-mouse CD11b, clone EPR1344, ABCAM® cat. #ab133357, 1:50; anti-mouse cleaved caspase-3 (Asp175), Cell Signaling Technology cat. #9661S, 1:300; anti-mouse CD34, clone MEC14.7, BioLegend cat. #119301, 1:100; anti-mouse Ki-67, clone D3B5, BioLegend cat. #12202S, 1:400; CD40 Abcam (ab13545) 1:200); 1:200 Mac-2 (BioLegend cat. #125403, clone M3/38) overnight in a wet chamber at 4° C. in the dark. The following day, sections were washed three times in 1×PBS and stained with secondary biotinylated antibody in PBS block buffer for 1 hour at room temperature. Sections were washed three times with 1×PBS and Elite Vectastain ABC Kit (Vector Laboratories, PK-6100) was applied for 30 minutes per manufacturer's instructions at room temperature in the dark. Sections were washed with 1×PBS, developed with DAB reagent (Peroxidase Substrate Kit, Vector Laboratories, cat. #5K4100), and counterstained with hematoxylin. Sections were then exposed to two washes with dH20, one wash with 1×PBS, and subsequent washes of increasing ethanol concentration for dehydration followed by incubation in Histo-Clear II. Slides were mounted with VectaMount Permanent Mounting Medium (Vector Laboratories, H-5000) and No. 1 glass coverslips (Denville Scientific, cat. #M1100-02) and allowed to cure for 24 hours. Sections were viewed with an Olympus BX43 Trinocular Microscope. For all IHC quantitation ten randomly selected fields from at least 4 different tumors in each treatment group were used to quantitate the percent of tissue positive for each marker using ImageJ software^32. Images were converted to a greyscale red-green-blue (RGB) stack. Positive stain in the “blue” greyscale image was quantified at the appropriate threshold as % total image area positive for stain.
Series [2] relates to MMTV-PyMT tumors. In words: Single agent efficacy on tumor burden in autochthonous MMTV-PyMT mice. It is filed as in vivo, mouse.
For series [3], the system named is human breast cancer cell lines (BT20, MCF7, HCC202, T47D, MDA-MB-453 and MDA-MB-436). In words: In vitro cell death assay (CellTiter-Glo), human lines. It is filed as cell-based. As to conditions: 0, 0.1, 1, 10 μM, 48 hours. The protocol: The human breast cancer cell lines (BT20, MCF7, HCC202, T47D, MDA-MB-453 and MDA-MB-436) were obtained from ATCC. Prior to use, cell line authentication was performed by either STR profiling at Dana-Farber Cancer Institute or by Fluidigm based fingerprinting with a panel of SNPs at The Broad Institute. Cell lines were tested for mycoplasma with the MycoAlert PLUS Mycoplasma Detection Kit (Lonza LT07) according to manufacturer's instructions. Mouse breast tumor cell lines were established from 4 different MMTV-PyMT tumor bear mice. Mouse breast tumor cell line 7333 was implanted into wild-type littermates and once the tumor formed it was removed and used to generate the tumor cell line “MMTV”. All cells were plated at 1E4 cells/well in a 96 well plate. Cells were treated for 48 hours and CellTiter-Glo was used to assess cell viability.
(In general: Cellular ATP, detected with luciferase, serves as a proxy for viable cell number.)

Series [4] concerns human monocytes, T or B cells. As to conditions: cited from earlier work.
Series [5] deals with myeloid cells (CD11b+) and T lymphocyte (CD3+) populations in the tumor. In words: Gene expression of FACS double-sorted tumor infiltrating leukocytes from MMTV-PyMT tumors. It is filed as in vivo, mouse. On the procedure:
Tumor cells were isolated and processed as previously described. To enrich for CD45^+ immune cells, EPCAM^+ tumor cell depletion was carried out. Whole tumor cell suspension was incubated with biotinylated anti-EPCAM antibody (MACS Miltenyi cat. #130-101-859, clone caa7-9G8) for 10 minutes followed by incubation with Anti-Biotin Microbeads (MACS Miltenyi cat. #130-090-485) for 15 minutes at 4° C. in the dark. […] Following negative selection, EPCAM-depleted cells were stained for anti-mouse CD45 Alex FLOUR® 488 (BioLegend cat. #103121, clone 30-F11), anti-mouse CD3 BV421 (BioLegend cat. #100227, clone 17A2), anti-mouse CD11b APC (BioLegend cat. #101211, clone M1/70), and anti-mouse CD19 (BioLegend cat. #115507, clone 6D5). 7-AAD Viability Staining Solution (BioLegend cat. #420403) was applied to the cells 10 minutes prior to sorting on the BD FACSAria. CD45+/CD19-/7-AAD-/CD3+ cells and CD45+/CD19-/7-AAD-/CD11b+ cells were sorted into DMEM medium (Life Technologies cat. #11995-065) containing 2% FBS at 4° C. Cells were pelleted and immediately lysed in RNEASY® RLT buffer (RNEASY® Mini Plus Kit, Qiagen cat. #74134) containing 2-mercaptoethanol. RNA was isolated according to RNEASY® instructions in combination with RNase-Free DNase Set (Qiagen cat. #79254) standard protocol, and quality was verified with the Nanodrop™ Spectrophotometer. To obtain adequate amounts of RNA tumors from 5 mice were pooled together for each “sample”.
All procedures were performed at Boston University Microarray Resource Facility as described in the GENECHIP® Whole Transcript (WT) Plus Reagent Kit Manual (Affymetrix, Santa Clara, Calif.). Briefly, the total RNA was isolated using an RNEASY® kit (Qiagen), and the sample integrity was verified using RNA 6000 Pico Assay RNA chips run in Agilent 2100 Bioanalyzer (Agilent Technologies). The total RNA (200 ng) was reverse transcribed using GENECHIP® WT PLUS Reagent Kit (Affymetrix). The obtained cDNA was used as a template for in vitro transcription using GeneChip® WT Expression Kit (Life Technologies). The obtained antisense cRNA was purified using Nucleic Acid Binding Beads (GENECHIP® WT PLUS Reagent Kit, Affymetrix) and used as a template for reverse transcription to produce single-stranded DNA in the sense orientation. During this step, dUTP was incorporated. The DNA was then fragmented using uracil DNA glycosylase (UDG) and apurinic/apyrimidinic endonuclease 1 (APE 1) and labeled with DNA labeling reagent covalently linked to biotin using terminal deoxynucleotidyl transferase (TdT, GENECHIP® WT PLUS Reagent Kit, Affymetrix). IVT and cDNA fragmentation quality controls were carried out by running an mRNA Pico assay in the Agilent 2100 Bioanalyzer. […]

In series [6] the test system is whole MMTV-PyMT tumors. Kind of series: Gene expression in RNA isolated from whole tumors after two weeks of treatment. As to conditions: two weeks TMP195 vs vehicle, n=3 mice per group. It is filed as in vivo, mouse.
Protocol: All procedures were performed at Boston University Microarray Resource Facility as described in the […] ® Whole Transcript (WT) Plus Reagent Kit Manual (Affymetrix, Santa Clara, Calif.). Briefly, the total RNA was isolated using an RNEASY® kit (Qiagen), and the sample integrity was verified using RNA 6000 Pico Assay RNA chips run in Agilent 2100 Bioanalyzer (Agilent Technologies). […] The obtained cDNA was used as a template for in vitro transcription using GeneChip® WT Expression Kit (Life Technologies). […] During this step, dUTP was incorporated. […] IVT and cDNA fragmentation quality controls were carried out by running an mRNA Pico assay in the Agilent 2100 Bioanalyzer. The labeled fragmented DNA was hybridized to the Gene Arrays 1.0ST for 16-18 h in […] ® Hybridization oven 640 at 45° C. with rotation (60 r.p.m.). The hybridized samples were washed and stained using Affymetrix fluidics station 450 as per manufacturer's instruction (Hybridization, Washing and Staining kit, Affymetrix). Microarrays were immediately scanned using Affymetrix GeneArray Scanner 3000 7G Plus (Affymetrix).
The test system of series [7] is MMTV-PyMT tumor transplants. Kind of series: Orthotopic transplant of MMTV-PyMT tumor pieces into wild-type FVBN or athymic nude Foxn1nu mice. The format is in vivo, mouse. On the procedure:
Two transplant experiments were performed where tumors were extracted from MMTV-PyMT mice and 50-100 mm^3 pieces were inserted into the 4th mammary fat pad of either wild-type FVBN mice or athymic nude Foxn1nu mice. Five days after implant mice were randomly placed into treatment groups and treated as indicated.

Setting [8] is: 50 mg/kg TMP195 IP daily, 5 days vs DMSO.
The mark [9] stands for this setting: TMP195 daily for 5 days vs DMSO.

Entries after “also recorded” stand apart in the source; their conditions may differ.

In the case of `CC(C)(CNC(=O)c1cccc(-c2noc(C(F)(F)F)n2)c1)c1coc(-c2ccccc2)n1` [TMP195, N-(2-methyl-2-(2-phenyloxazol-4-yl)propyl)-3-(5-(trifluoromethyl)-1,2,4-oxadiazol-3-yl)benzamide], in series [1] (setting [8]), the “proportion of myeloid (CD11b+) and mature macrophages (Mac-2+, CD115+, F480+) in tumors” value is on record as “increased proportion”; the “proportion of other tumor infiltrating immune cells examined” value is listed as “without affecting”. In series [1] (5 days of TMP195 treatment), the “MHCII+CD11bhi (MTM) cell population in tumors” value was “increase” and the “proportion of pro-tumor TAMs (MHCII+CD11blo)” value was “decrease; also recorded: significant reduction”. Moreover, the “cytotoxic T lymphocytes in tumors (Granzyme B+ of CD45+CD3+CD8+ cells)” value in series [1] (5 days of TMP195 vs vehicle) is “significantly increases; also recorded: increase”. For the same molecule, the “proportion of CD8+ T cells in the tumor” value in series [1] (TMP195 treatment) is reported as “does not change”. Besides, the “rate of tumor growth” value in series [2] (total tumor burden 150-800 mm^3 at start, 13 days, 50 mg/kg TMP195 IP daily vs DMSO) is given as “significantly reduced”. Besides, the “tumor burden, single agent” value in series [2] (total tumor burden 200-600 mm^3 at start, 50 mg/kg TMP195 IP daily vs vehicle) is “significant reduction”. Further, the “cell viability, 6 human breast cancer cell lines” value in series [3] was “not directly cytotoxic; also recorded: does not affect cell viability”. For the same molecule, in series [4] (previous report), the “gene expression of monocytes and lymphocytes” value is recorded as “altered monocyte gene expression without affecting that of lymphocytes”. Further, the “direct cytotoxicity to human monocytes, T or B cells” value in series [4] (previously reported) is “not directly cytotoxic”. Also, in series [5] (setting [9]), the “number of differentially expressed probes (δ-factor >1.5) in CD3+ cells” value is 3 probes and the “number of differentially expressed probes (δ-factor >1.5) in CD11b+ cells” value amounted to 26 probes. Also, the “increase in gene expression in CD11b+ myeloid cells” value in series [5] (TMP195 daily for 5 days vs DMSO, probes with δ-factor >1.5) is reported as “up to 4.8 fold”. For the same molecule, the “IFNγ response gene signature in tumor-resident CD11b+ cells” value in series [5] (TMP195 treatment) is recorded as “induced an IFNγ response gene signature”. Moreover, the “differential gene expression in whole tumor RNA” value in series [6] is listed as “overall lack of differential gene expression”. In addition, the “tumor burden in wild-type FVBN recipients” value in series [7] (treated daily for 16 days, 50 mg/kg TMP195 vs DMSO) is given as “tumor burden was reduced”. Also, the “transplant growth in T cell deficient athymic nude (Foxn1nu) recipient mice” value in series [7] (treated for 20 days) is given as “failed to inhibit transplant growth”.
